Reference: ChEMBL document CHEMBL1142280, “Discovery of new small molecules that influence neuroblast cell migration from the subventricular zone” (2008)
Active and inactive are the calls of the source. The rule behind the calls is not given here.

Key:
[1] = Inhibition of mouse neuroblast cell migration from subventricular zone tissue explants at 154 uM after 48 hrs relative to control; type: functional
[2] = Inhibition of mouse neuroblast cell migration from subventricular zone tissue explants at 139 uM after 48 hrs relative to control; type: functional
Mus musculus [3] = species on record: Mus musculus; assay: Inhibition of mouse neuroblast cell migration from subventricular zone tissue explants at 13.9 uM after 48 hrs relative to control; type: functional
Mus musculus [4] = species on record: Mus musculus; assay: Inhibition of mouse neuroblast cell migration from subventricular zone tissue explants at 67 uM after 48 hrs relative to control; type: functional
[5] = Inhibition of mouse neuroblast cell migration from subventricular zone tissue explants at 250 uM after 48 hrs relative to control
Mus musculus [6] = species on record: Mus musculus; assay: (§1) Inhibition of mouse neuroblast cell migration from subventricular zone tissue explants at 63 uM after 48 hrs relative to control; type: functional
[7] = as §1; type: functional
[8] = Inhibition of mouse neuroblast cell migration from subventricular zone tissue explants at 223 uM after 48 hrs relative to control; type: functional
[9] = Inhibition of mouse neuroblast cell migration from subventricular zone tissue explants at 123 uM after 48 hrs relative to control; type: functional
Mus musculus [10] = species on record: Mus musculus; assay: Inhibition of mouse neuroblast cell migration from subventricular zone tissue explants at 12.3 uM after 48 hrs relative to control; type: functional
[11] = Inhibition of mouse neuroblast cell migration from subventricular zone tissue explants at 224 uM after 48 hrs relative to control; type: functional
Mus musculus [12] = species on record: Mus musculus; assay: Inhibition of mouse neuroblast cell migration from subventricular zone tissue explants at 22 uM after 48 hrs relative to control; type: functional
Mus musculus [13] = species on record: Mus musculus; assay: Inhibition of mouse neuroblast cell migration from subventricular zone tissue explants at 100 uM after 48 hrs relative to control; type: functional
Mus musculus [14] = species on record: Mus musculus; assay: Reversal of inhibition of mouse neuroblast cell migration from subventricular zone tissue explants in presence of PR21; type: functional
[15] = Inhibition of mouse neuroblast cell migration from subventricular zone tissue explants at 68 uM after 48 hrs relative to control; type: functional
[16] = Inhibition of mouse neuroblast cell migration from subventricular zone tissue explants at 34 uM after 48 hrs relative to control; type: functional
Mus musculus [17] = species on record: Mus musculus; assay: Inhibition of mouse neuroblast cell migration from subventricular zone tissue explants at 6.8 uM after 48 hrs relative to control; type: functional
Mus musculus [18] = species on record: Mus musculus; assay: Inhibition of PR21-stimulated mouse neuroblast cell migration from subventricular zone tissue explants after 24 hrs; type: functional
Mus musculus [19] = species on record: Mus musculus; assay: Inhibition of mouse neuroblast cell migration from subventricular zone tissue explants after 24 hrs; type: functional

SMILES: O=C(NCCCCCCNC(=O)c1ccccc1)c1ccccc1
- inhibition at 154 µM [1]: 50%

SMILES: O=C(NCCSSCCNC(=O)c1ccccc1)c1ccccc1
- inhibition at 139 µM [2]: 100%
- Activity (Mus musculus [3]): inactive

SMILES: O=C(c1ccc(C(=O)N2CCCNCCNCCCNCC2)cc1)N1CCCNCCNCCCNCC1
- Activity (Mus musculus [4]): inactive

SMILES: C1CNCCNCCCNCCNC1
- inhibition at 250 µM [5]: 20%

SMILES: C1CNCCNCCCN(CC2CCC(CN3CCCNCCNCCCNCC3)CC2)CCNC1 (configuration not stated)
- Activity (Mus musculus [6]): inactive

SMILES: c1cc(CN2CCCNCCNCCCNCC2)cc(CN2CCCNCCNCCCNCC2)c1
- inhibition at 63 µM [7]: 10%

SMILES: NCCSSCCN [CYSTAMINE]
- inhibition at 223 µM [8]: 33%

SMILES: c1ccc(CN2CCCNCCNCCCNCC2)c(CN2CCCNCCNCCCNCC2)c1
- Activity (Mus musculus [6]): inactive

SMILES: c1cc(CN2CCCNCCNCCCNCC2)ccc1CN1CCCNCCNCCCNCC1
- Activity (Mus musculus [6]): inactive

SMILES: c1ccc(CNCCSSCCNCc2ccccc2)cc1
- inhibition at 123 µM [9]: 100%
- Activity (Mus musculus [10]): inactive

SMILES: C1CNCCNCCNCCN1
- inhibition at 224 µM [11]: 19%
- Activity (Mus musculus [12]): inactive

SMILES: CC(CNCCCCCN)SSC(C)CNCCCCCN (configuration not stated)
- Activity (Mus musculus [13]): inactive

SMILES: COc1ccccc1CNCCCCCCNCCSSCCNCCCCCCNCc1ccccc1OC [BENEXTRAMINE]
- Activity (Mus musculus [14]): Active
- inhibition at 68 µM [15]: 100%
- inhibition at 34 µM [16]: 45%
- Activity (Mus musculus [17]): inactive
- Activity (Mus musculus [18]): Active
- Activity (Mus musculus [19]): Active

SMILES: C1CNCCNCCCN(CCCCN2CCCNCCNCCCNCC2)CCNC1
- Activity (Mus musculus [4]): inactive
